Data set [1] has as its system SH-SY5Y cells. In words: impedimetric monitoring of differentiated wildtype and poly-mutant tau expressing cells. Particulars: differentiated 48 h with 20 nM staurosporine, then monitored 24 h; compared to wildtype tau cells. Format: cell-based, human. On the procedure:
FIG. 5: Differentiation induces neurodegeneration in poly-mutant tau expressing SH-SY5Y cells. Differentiation of SH-SY5Y cells were induced by 48 h incubation with 20 nM staurosporine. Afterwards the cells were impedimetrically monitored for 24 h. […] (n=4, 2D-ANOVA, Bonferoni post-hoc test, *p<0.05, **p<0.01)
(§1) Human neuroblastoma SH-SY5Y cells were grown in DMEM medium, supplemented with 15% fetal bovine serum (FBS), non-essential amino acids, glutamax and penicillin/streptomycine (Invitrogen). Differentiation of SH-SY5Y cells was induced by incubation of the SH-SY5Y cells with 20 nM stauropsprin (Sigma-Aldrich) for 48 hours. For the appropriate experiments differentiated cells were treated with okadaic acid (Sigma-Aldrich) in a concentration of 25 nM or in case of reference compound testing with SRN-003-556 and AR-A014418, respectively.
Cells were cultured on self-developed 96-well arrays comprising a gold electrode at the culture surface. The SH-SY5Y cells were differentiated for 48 hours on the 96-well arrays. Impedance spectra were recorded with a self developed multiplexer unit for the 96-well arrays and an impedance Analyser Agilent 4294A (Agilent Technologies) with an alternating voltage of 10 mV with frequencies from 500 Hz to 5 MHz (0 mV bias between electrodes). For each experiment at least five wells were measured in replicate. All impedance magnitude spectra were analysed with a self-developed software IDAT (Impedance Data Analysing Tool). IDAT calculates the impedance of cell-covered electrodes relative to electrodes without cells (relative impedance: (|Z|covered-|Z|cell-free)/|Z|cell-free×100%) and determine the and select the frequency where impedance change caused by the cell layer is maximum (for SH-SY5Y cells on 96-well array at about 100 kHz). […] Experiments were repeated at least three times. […]

Data set [2] relates to Hyper-tau expressing SH-SY5Y cells. Description: impedance spectroscopy based functional tau pathology in vitro screening assay (Hyper-tau cells). The format is cell-based, human. On the procedure:
FIG. 6: Use of Hyper-tau cells for quantitative detection of compound efficiency. Taking the developed Hyper-tau cells, where pathology was induced by differentiation (20 nM staurosporine for 48 h) in comparison to the wildtype tau expressing cells (physiological condition) the efficiency of potential active pharmaceutical ingredients could be quantified.
Human neuroblastoma SH-SY5Y cells were grown in DMEM medium, supplemented with 15% fetal bovine serum (FBS), non-essential amino acids, glutamax and penicillin/streptomycine (Invitrogen). Differentiation of SH-SY5Y cells was induced by incubation of the SH-SY5Y cells with 20 nM stauropsprin (Sigma-Aldrich) for 48 hours. […]
Cells were cultured on self-developed 96-well arrays comprising a gold electrode at the culture surface. […] Impedance spectra were recorded with a self developed multiplexer unit for the 96-well arrays and an impedance Analyser Agilent 4294A (Agilent Technologies) with an alternating voltage of 10 mV with frequencies from 500 Hz to 5 MHz (0 mV bias between electrodes). For each experiment at least five wells were measured in replicate. All impedance magnitude spectra were analysed with a self-developed software IDAT (Impedance Data Analysing Tool). […]

Data set [3] deals with tauopathy mouse model. As to conditions: LeCorre et al. 2006, Selenica et al. 2007; cited from earlier work.
The subject of data set [4] is tau hyperphosphorylation. Particulars: artificial hyperphosphorylation using toxic compounds like okadaic acid; cited from earlier work.
Data set [5] relates to tau mutant expressing SH-SY5Y cells. Description: impedimetric detection of okadaic acid induced artificial hyperphosphorylation. As to conditions: 25 nM. The format is cell-based, human. The procedure: FIG. 4: Impedimetric detection of consequences by okadaic acid induced artificial hyperphosphorylation. […] (n=3, 2D-ANOVA, Bonferoni post-hoc test, *p<0.05, **p<0.01, ***p<0.001)
as §1
Cells were cultured on self-developed 96-well arrays comprising a gold electrode at the culture surface. The SH-SY5Y cells were differentiated for 48 hours on the 96-well arrays. Impedance spectra were recorded with a self developed multiplexer unit for the 96-well arrays and an impedance Analyser Agilent 4294A (Agilent Technologies) with an alternating voltage of 10 mV with frequencies from 500 Hz to 5 MHz (0 mV bias between electrodes). For each experiment at least five wells were measured in replicate. All impedance magnitude spectra were analysed with a self-developed software IDAT (Impedance Data Analysing Tool). […]

The test system of data set [6] is SH-SY5Y neuroblastoma cell lines. In words: formation of abnormal tau aggregates after differentiation (EGFP-tau imaging). As to conditions: after induction of differentiation (20 nM staurosporine), without toxic cofactors. The format is cell-based, human. The procedure: FIG. 1: Abnormal tau aggregation in a hyper-mutated tau expressing cell line.
as §1

Data set [7] deals with MC1-positive (abnormal conformation) tau in SH-SY5Y cell lines. In words: Western blot detection of abnormal tau conformation with MC1 antibody. The format is cell-based, human. As to conditions: undifferentiated neuroblastoma cell lines. An excerpt:
FIG. 2: Abnormal tau conformation in polymutant tau cell lines. Poly-mutant tau variants were developed and, using those variants, poly-mutant neuroblastoma cell lines were produced. In those cell lines tau adopting an abnormal/pathological conformation under physiological conditions was observed (MC1 abnormal tau). […] Corroborating recent results that phosphorylation may stabilize abnormal conformation the amount of MC1-positive tau species could be decreased by treating the cells with a tau kinase inhibitor (SRN-003-556). […]
Cells were harvested and protease as well as phosphatase inhibitor cocktail (Sigma-Aldrich) was added. Proteins were extracted by sonification (Hielscher GmbH) and protein concentration was determined using the Roti-Nanoquant Assay (Carl-Roth GmbH). Laemmli sample buffer was added to 60 μg cell lysate. Samples were separated on 10% SDS-polyacrylamide gel and electro transferred onto polyvinylidene fluoride membranes and subsequently immunolabeled with anti-MC1 specific antibody (Peter Davis Department of Pathology, Albert Einstein College of Medicine, 1:100) at 4° C. over night. Secondary antibody was horseradish peroxidase conjugated (Dianova, 1:5000). Specific protein signals were detected using Chemiluminescence Detection Kit (MobiTec) and ChemiDoc-XRS (BioRad). […]

With P301L: single mutant tau (P301L), the “relative impedance of tau variant expressing cells” value (“relative impedance” for short) in data set [1] is on record as “same impedimetric characteristic like the wildtype tau expressing cells”.
`COc1ccc(CNC(=O)Nc2ncc([N+](=O)[O-])s2)cc1` [AR-A014418]: the “side effects detected by impedimetric monitoring” value in data set [2] (6 h and 12 h, 0.1 nM-100 nM) was “toxic effects”. The “therapeutic effect on Hyper-tau induced pathology (impedance)” value in data set [2] (Hyper-tau cells differentiated with 20 nM staurosporine for 48 h, compared to wildtype tau cells) is “no therapeutic effect”. In data set [3], the “therapeutic effect in tauopathy mouse model” value is listed as “does not”. Further, the “therapeutic effect in okadaic acid based tau pathology in vitro assays” value in data set [4] is “therapeutic effect”.
Turning to `C=C1[C@@H](O)[C@@H]2O[C@]3(CC[C@H](/C=C/[C@@H](C)[C@@H]4CC(C)=C[C@@]5(O[C@H](C[C@@](C)(O)C(=O)O)CC[C@H]5O)O4)O3)CC[C@H]2O[C@@H]1[C@@H](O)C[C@H](C)[C@H]1O[C@@]2(CCCCO2)CC[C@H]1C` [okadaic acid], the “impedimetric effect of okadaic acid incubation” value in data set [5] (3 h and 6 h) is “Hyper-tau mutant specific degenerative effect”; in data set [5] (after 24 h) it was “massive cell damage in all tau mutants”.
Regarding “Hyper-tau: 5× polymutant tauK257T/ΔK280/P301L/V337M/R406W, SEQ ID NO:3”, the “relative impedance” value in data set [1] is “still more substantial decrease of relative impedance”. Also, the “formation of abnormal tau aggregates” value in data set [6] was “formation of abnormal tau aggregates”. In data set [7], the “MC1-detected misfolded tau species” value is “abnormally conformed, misfolded tau species”.
With “K257Tq: 4× polymutant tauK257T/P301L/V337M/R406W”, the “relative impedance” value in data set [1] is reported as “lower impedance values”.
